3 molecules from patent US20080299598A1, “Detector Comprising a Membrane Perturbation - Detecting Polymer and Functional Membrane Fragments” (priority 2004, published 2008) can be followed below.

The structures appear in SMILES notation.

Series [1] has as its system plasma membrane fragments obtained from PC12 cells. Nature of the series: Chromatic response (% CR) of the polydiacetylene construct made with plasma membrane fragments from PC12 cells (detects membrane-permeating drugs). It counts as in vitro ADME. Conditions: analyte up to 11 μM; 25 mM Tris base pH 8; FIG. 2. The procedure: FIG. 2 illustrates the detection of a drug molecule capable of permeating cellular membrane using the construct of the invention (comprising plasma membrane fragments obtained from PC12 cells and polydiacetylene).
(§1) 20 μl of 10,12-tricosadionic acid taken from a stock solution in 60 mM chloroform/ethanol (1:1) are dried in vacuo up to constant weight. The dried material is then resuspended in 1.950 ml deionized water and subjected to probe sonication at 70° C. for 3 minutes. The solution thus obtained is then cooled for 15 minutes, and 50 μl of plasma membrane from PC12 cells (prepared as described hereinabove) is added thereto. The vesicle suspension obtained thereby is then subject to another round of sonication for 10 seconds, left to cool to room temperature and than stored at 4° C. overnight.
Aqueous stock solutions containing 5.2 mg/ml propranolol and 1.5 mg/ml amoxicillin were prepared. […]
FIG. 2 depicts the chromatic response factor calculated for various Propranol- or Amoxicillin-containing samples on the basis of the UV-vis spectra measured, versus the concentration of the analyte (that is, either Propranol or Amoxicillin) in said samples. […]

Series [2] has as its system muscarinic receptor. The series can be described thus: Chromatic response (% CR) of the polydiacetylene construct made with crude membrane fragments from PC12 cells overexpressing the muscarinic receptor. It counts as binding. The note with it: atropine up to 20 μM; 25 mM Tris base pH 8; compared with construct from regular PC12 crude membrane; FIG. 1. How it is done:
PC12 cells overexpressing the muscarinic receptors were prepared using conventional transfection techniques, as described, for example, by Sadot et al. [Israel Journal of neurochemistry (1996 February), 66(2), 877-80.]
as §1, with “crude” for “plasma”, “hereinabove and containing 10 mg/ml protein)” for “hereinabove)”
An aqueous stock solution containing Atropine at a concentration of 0.55 mg/ml was prepared. […]
The UV-vis spectroscopic measurements were carried out three times for each of the samples prepared, using a Jena Analytical Elisa-reader using 96 well microplates. The blue-to-red chromatic transitions were quantified using the chromatic response factor, as defined below:
where Ablue and Ared are the absorbance measured at about 640 nm and about 500 nm, respectively. […]

On to `CC1(C)S[C@@H]2[C@H](NC(=O)[C@H](N)c3ccc(O)cc3)C(=O)N2[C@H]1C(=O)O` [Amoxicillin], for which the “chromatic change (% CR)” value in series [1] is reported as “very low % CR”. On to `CN1[C@@H]2CC[C@H]1C[C@@H](OC(=O)C(CO)c1ccccc1)C2` (stereo partly drawn) [atropine, Atropine], for which, in series [2], the “chromatic transition (% CR)” value is recorded as “high % CR”. In the case of `CC(C)NCC(O)COc1cccc2ccccc12` (stereo not drawn) [propranolol], the “chromatic change (% CR)” value in series [1] is on record as “high % CR”.
